Patent US20080275105A1, “Selective Muscle Relaxant and Pharmaceutical Compositions” (UNIVERSIDADE FEDERAL DO RIO DE JANEIROUFRJ, priority 2004, published 2008)
“And” between values parts separate entries of the source, which are not always exact repeats. Equal values may be shown once. “Also recorded” adds a separate entry of the source.

Assays:
rat papillary muscle = assay: Isometric tension (electrically stimulated twitches) in papillary muscle; type: cell-based; conditions: for maximum alterations to the papillary muscle twitches: 10 to 100 μM, not significant; for amplitude of the papillary muscle twitches: 100 μM, 1 Hz stimulation
Protocol: (§1) Once the experiments have been carried out, the findings were subject to statistical analyses being expressed in average ±SEM as a percentage of the control value, and graphs were drawn up using the Sigma Plot 5.0 program to represent the data obtained. For the statistical analysis of the effects on the different muscle tissues, the difference was assessed among the concentrations of the same derivative, using the “t” Student test. In order to ascertain the difference among the derivatives, the one-way ANOVA test was used. The differences were considered as significant for p<0.05. The Cl50 was expressed as an average ±SEM of the values obtained for each experiment through non-linear regression based on the y=yo+ae^−bx equation.
(§2) After anesthesia with ethyl ether, male Wistar rats weighing between 240-280 grams were sacrificed through cervical dislocation. The heart was removed rapidly and the papillary muscle and the ventricular bundles were dissected in Tyrode's solution, whose composition is given in Table 2 below, at room temperature. The muscles were placed in vertical chambers with a capacity of 10 mL and fixed at their extremities: the lower portion to a hook located in the stimulation electrode fixation rod and the upper portion connected to a power transducer (Grass FT03) for recording the muscle twitches.
(§3) The muscles were stimulated electrically with supra-maximum voltage (50-60 V) through a stimulator (Grass S88) at a frequency of 1.0 Hz. The signals captured by the transducer were amplified (Cyberamp 380, Axon Instruments) and the isometric tension was digitized (Digidata 1322A, Axon Instruments) and stored on a computer. The screening and analysis of the experiment was handled through the Axoscope 8.0 program (Axon Instruments) (Sudo & cols., 2001). The chamber solution was bubbled continuously with a carbogenic mixture (95% O2/5% CO2) and kept at a temperature of 37° C.
(§4) After the stabilization of the muscle twitches (approximately 30 min) the records were carried out in the absence (control) and presence of rising concentrations (10 to 100 μM) of the different L294 analogs, diluted in DMSO. The records were carried out in pairs (two papillary and two ventricle) thus allowing the control experiments to be carried out in one of the pairs, meaning with rising quantities of DMSO equivalent to those used to dilute the substances. The reversibility of the effect of the substances was investigated at the end of each experiment, noting the recovery of the muscle twitches after bathing the preparation with Tyrode's solution.

[1] = system: left ventricle bundles of a rat heart; assay: Isometric tension in ventricular bundles; type: cell-based; conditions: for muscular response in ventricular bundles: concentration not given, alterations not greater than 10%
Protocol: as §1, §2, §3, §4

[2] = system: rat aorta rings with the vascular endothelium preserved; assay: Phenylephrine-induced contracture in aorta rings with preserved endothelium; type: cell-based; conditions: phenylephrine 10 μM; for IC50: Rattus norvegicus, with endothelium, six experiments, read-out: CI50 (μM) Average ± SEM
Protocol: as §1
(§5) Male Wistar rats weighing between 240-280 grams were sacrificed through dislocation of the cervical column under anesthesia using ethyl ether. The aorta artery was removed and transferred to a Petri dish containing modified Tyrode's solution whose composition is described in Table 3 below, where the vessel was cleaned and the connective tissue was removed. According to the scheduled Experiment Protocol, the vascular endothelium was removed mechanically with the assistance of a polyethylene rod. The artery was divided into rings with a width of 2-3 mm. Two hooks were placed in the wall of the vessel in order to record the tension generated by the muscle in a transversal direction. To do so, one of the hooks was tied to a fixed point in the chamber and the other to a power transducer (FT 03) for recording the isometric tension. The tension generated by the muscle was transformed into a digitized electric signal (Digidata 1322A) and stored in a computer for subsequent analysis using the Axoscope 8.0 program (Axon Instruments, Inc). The chamber was filled with Krebs solution, oxygenated and kept at a temperature of 37° C.
(§6) After stabilizing the preparation, approximately 120 minutes, the Experiment Protocol began. Initially, in order to identify the presence or absence of the vascular endothelium, the preparation was exposed to phenylephrine (10 μM) and when the contracture in response to this substance was stabilized, acetylcholine (10 μM) was added to the nutrient solution. Relaxation of over 80% in response to the acetylcholine indicated the full integrity of the endothelium and relaxation of less than 10% indicated the absence of endothelium. The tissues in which the relaxation intensity fell between >10% and <80% were discarded. In order to investigate the vasodilator effect of the different L294 analogs, they were added to the experiment chambers in rising concentration after the contracture stabilization of the vessel induced by phenylephrine. The tension registered after treatment with each of the L294 analog concentrations was normalized as a function of the amplitude of the contracture triggered by phenylephrine. For the purpose of comparing the potency of some of the L294 analogs, the Cl50 was determined for each experiment using the y=yo+ae^−bx equation and their mean was used for the statistical analysis.

[3] = system: aorta rings with no preserved endothelium; assay: Phenylephrine-induced contracture in aorta rings without endothelium; type: cell-based, rat; conditions: phenylephrine 10 μM; for IC50: Rattus norvegicus, without endothelium, six experiments, read-out: CI50 (MM) Average ± SEM; for vasodilatory / relaxing effect on phenylephrine contracture, without endothelium: result in words
Protocol: as §1, §5, §6
The importance of the presence of vascular endothelium in the vasodilatory action of the L294 analogs was assessed in experiments in which these cells were removed mechanically. […] When the findings of the experiments without the endothelium were analyzed as a whole, the absence of the L790 effect was confirmed. […] The maximum relaxation caused by the L787 and L789 analogs was less than 50% of the control, and the other analogs caused relaxation in the following decreasing order of efficacy: L785>L788>L786. Once again, attention is drawn to the marked efficiency of the L785 and L788 analogs.

[4] = system: extensor digitorium longus (EDL) muscle; assay: Electrically induced twitch amplitude in fast-fiber skeletal muscle (EDL); type: cell-based, mice; conditions: for EDL twitch amplitude 30 min-Washing (% of the control): 30 min after washing
Protocol: (§7) Male mice weighing 22-28 g were sacrificed through cervical dislocation and the extensor digitorium longus (EDL) and soleus (SOL) muscles were dissected in a Ringer-Krebs solution, whose composition is given in Table 9, at room temperature. The muscles were placed in vertical chambers with a capacity of 10 ml, and were fixed by their ends to the stimulation electrode fixation rod and a power transducer (Grass FT03) for registering muscle twitches. The chamber solution was bubbled continuously with a carbogenic mixture (95% O2/5% CO2) and kept at a temperature of 37° C. The muscles were stimulated electrically through a stimulator (Grass S88) at a frequency of 0.2 Hz, at 37° C. After the stabilization of the muscle twitches (±30 minutes) a control record was taken in the absence of the drug, and subsequently rising concentrations (from 10 μM to 200 μM) of the L294 derivatives were added every ten minutes, diluted in DMSO. […] The signals recorded by the transducer were amplified (Cyberamp) and the isometric tension was digitized (Digidata 1322A) and stored on a computer. The screening and analysis of the experiment was handled through the use of the Axoscope 8.0 program. (Zapata-Sudo, 2003).
(§8) A measurement of the electrically-induced twitch amplitude was selected to assist the effects of the L294 analogs on the skeletal muscle inotropism. One muscle consisting of fast fibers (extensor digitorium longus-EDL) and the other of slow fibers (soleus-SOL) taken from mice were selected for this purpose. Differences in the timing of the twitches between the fast and slow muscles are shown at the faster recording speed. […] Washing the preparation with Krebs solution caused a partial reversion of the effects induced by the L786.

soleus (SOL) muscle = assay: Electrically induced twitch amplitude in slow-fiber skeletal muscle (SOL); type: cell-based, mice; conditions: for SOL twitch amplitude 30 min-Washing (% of the control): 30 min after washing
Protocol: as §7, §8

[5] = system: corpus cavernosa of a male guinea pig; assay: Phenylephrine-induced contracture in corpus cavernosa; type: cell-based; conditions: 200 μM; phenylephrine 30 μM
Protocol: It is noted that L788 concentration-dependent inhibition occurred for the contractile response of the corpus cavernosa.
This same Protocol Experiment was repeated for the other derivatives being tested and for the solvent separately (FIG. 11). It was noted that only L788 caused significant reaction, where the amplitude of the contracture at a concentration of 200 μM was 46.5±8.8% of the control. […] The effect of the solvent (DMSO) was tested at volumes corresponding to those used for the derivatives, and was unable to cause any significant alterations to the contractility of this tissue.

[6] = system: rat aorta rings with preserved endothelium; assay: KCl-induced contracture in aorta rings with preserved endothelium; type: cell-based; conditions: KCl 40 mM
Protocol: as §1, §5, §6
The effects of the L294 analogs were investigated in rat aorta rings with preserved endothelium whose contracture was induced by increasing the extra-cellular concentration of KCl to 40 mM. Of the seven L294 analogs, this test was carried out only with the L785, L786, L789 and L790, in this group of experiments.

[7] = system: rat aorta rings with no endothelium; assay: KCl-induced contracture in aorta rings without endothelium; type: cell-based; conditions: Rattus norvegicus; KCl 40 mM; without endothelium; six experiments; read-out: CI50 (μM) Average ± SEM
Protocol: as §1, §5
as §6, with “[…] […]” for “In order to investigate the vasodilator effect of the different L294 analogs, they were added to the experiment chambers in rising concentration after the contracture stabilization of the vessel induced by phenylephrine. The tension registered after treatment with each of the L294 analog concentrations was normalized as a function of the amplitude of the contracture triggered by phenylephrine.”

SMILES | maximum alterations to the papillary muscle twitches (rat papillary muscle) | muscular response in ventricular bundles [1] | IC50 [2] [µM] | maximum inhibition levels of phenylephrine contracture, with endothelium [2] [%] | IC50 [3] [µM] | EDL twitch amplitude 200 μM (% of the control) [4] | EDL twitch amplitude 30 min-Washing (% of the control) [4] | SOL twitch amplitude 200 μM (% of the control) (soleus (SOL) muscle) | amplitude of the papillary muscle twitches (rat papillary muscle) | muscle twitches / contractility in ventricular bundles ([1]; 100 μM) | amplitude of the phenylephrine contracture in rings with whole endothelium ([2]; maximum effect) | amplitude of the phenylephrine-induced contracture of the corpus cavernosa [5] | SOL twitch amplitude 30 min-Washing (% of the control) (soleus (SOL) muscle) | amplitude of the KCl contracture, with endothelium ([6]; 200 μM stated for L790) | CI50 (μM) Average ± SEM ([6]; with endothelium, six experiments) | inhibition of the KCl contracture, with endothelium ([6]; up to 100 μM, result in words) | vasodilatory / relaxing effect on phenylephrine contracture, without endothelium [3] | IC50 [7] [µM]
Cc1ccc(/C=N/NC(=O)c2ccc3c(c2)OCO3)s1 [L787, 1,3-Benzodioxol-5-carboxylic acid, [1-(5-methyl-thiophene-2-yl)-meth-(E)-ylidene]-hydrazide] | 115.0±5.0 % of the control | 105±6.9 % of the control | 293 ± 76 | 37.1±7.0 | 273 ± 22 | 37.8±3.5 % of the control | 38.6 ± 2.5 % of the control | 47.6±4.2 % of the control | – | – | – | – | – | – | – | – | – | –
C=CCN(/N=C/c1cccs1)C(=O)c1ccc2c(c1)OCO2 [L788, 1,3-Benzodioxol-5-carboxylic acid, N′-[1-thiophene-2-yl-meth-(E)-ylidene]-N-allyl-hydrazide] | – | – | 67.9 ± 6.5 | – | 65.7 ± 8 | 47.6±5.4 % of the control | 26.8 ± 2.3 % of the control | 45.1±5.1 % of the control | 81.2±2.6 % of the control | 74.9±5.1 % of the control | 10.4±3.2 % of the control | 46.5±8.8 % of the control | 37.8 ± 4.7 % of the control | – | – | – | – | –
O=C(N/N=C/c1ccc([N+](=O)[O-])s1)c1ccc2c(c1)OCO2 [L790, 1,3-Benzodioxol-5-carboxylic acid, [1-(5-nitro-thiophene-2-yl)-meth-(E)-ylidene]-hydrazide] | 87.8±5.6 % of the control | 92.3±1.6 % of the control | 216 ± 39.3 | 47.0±5.9 | – | 52.2±3.4 % of the control and 52.2 ± 3.8 % of the control | 49.2 ± 5.1 % of the control | 71.3±5.2 % of the control | – | – | – | – | 70.8 ± 7.7 % of the control | 74.9±8.8 % of the control | cannot be determined | insignificant | absence of the relaxing effect; also recorded: lacked vasodilatory action; also recorded: did not cause a significant relaxing effect | 123 ± 17.3
O=C(NNCc1cccs1)c1ccc2c(c1)OCO2 [L791, 1,3-Benzodioxol-5-carboxylic acid, N′-thiophene-2-ylmethyl-hydrazide] | 92.4±2.5 % of the control | 89.4±4.5 % of the control | 173 ± 26.7 | 59.2±7.8 | – | 45.8±6.9 % of the control and 45.9 ± 6.9 % of the control | – | 69.3±4.8 % of the control | did not significantly alter the contractile response | – | – | – | 74.4 ± 13.8 % of the control | – | – | – | did not result in any vasodilatory activity; also recorded: lacked vasodilatory action | –
